Laboratory results taken from patent publication US20240108654A1, “COMBINATION OF A T CELL THERAPY AND A DGK INHIBITOR” (Juno Therapeutics, Inc., priority 2021, published 2024).
pEC50: −log10 of the molar value.

What was measured:
[1] = tested on: Human venous whole blood; assay: Human whole blood IFN-γ assay; type: cell-based; conditions: anti-CD3 and anti-CD28 1 μg/mL each, 24 hours; 3 μM reference compound as 100% activation; read-out: INFg Whole Blood Normalized Agonist EC50
Protocol: Human venous whole blood (22.5 μL per well), obtained from healthy donors, was pre-treated with compounds for one hour at 37° C. in a humidified 95% air/5% CO2 incubator. The blood was stimulated with 2.5 μL anti-human CD3 and anti-CD28 mAb at a final concentration of 1 μg/mL each for 24 hours at 37° C. IFN-γ in the supernatants was measured using ALphLISA kit (Cat #AL217).

[2] = tested on: anti-CD19 CAR-expressing T cells; assay: CAR-T cell phenotype after stimulation with CAR-specific anti-idiotypic antibody (flow cytometry); type: cell-based, human; conditions: 48-hour stimulation with 3 or 30 μg/mL anti-idiotypic antibody; compound 0.1-1000 nM; two donors
Text: T cell compositions containing T cells expressing an exemplary anti-CD19 CAR were generated from leukapheresis samples from two healthy human adult donors by a process that included immunoaffinity-based selection of T cells by separately selecting CD4+ and CD8+ cells from the samples, resulting in two compositions enriched for CD4+ and CD8+ cells, respectively, per donor. Cells of the enriched CD4+ and CD8+ compositions were separately activated with anti-CD3/anti-CD28 beads and subjected to lentiviral transduction with a vector encoding an anti-CD19 CAR. […]
Prior to use, the cryopreserved CD4+ and CD8+ CAR-engineered cell compositions were thawed and combined at approximately a 1:1 CD4:CD8 ratio for each donor to prepare a combined CD4+ CAR+ and CD8+ CAR+ T cell composition. The effects of treatment with Compound 17 at various concentrations (0.1 nM, 1 nM, 10 nM, 100 nM, or 1000 nM) added at day 0 during stimulation of the combined CAR-T cell composition with a plate-bound CAR-specific anti-idiotypic antibody (see, e.g., WO2018/023100) or during co-culture with CD19-expressing cells was then assessed. […]

[3] = tested on: anti-CD19 CAR-expressing T cells; assay: Activated effector phenotype of CD4+ and CD8+ CAR-expressing cells under acute stimulation; type: cell-based, human
[4] = tested on: anti-CD19 CAR-expressing T cells; assay: T cell viability in acute stimulation assays; type: cell-based, human
[5] = tested on: anti-CD19 CAR-expressing T cells; assay: Cytokine production (MSD) of CAR-T cells concurrently treated during chronic stimulation, 3D tumor spheroids; type: cell-based, human; conditions: concurrent treatment during chronic stimulation; five days 3D co-culture with A549.CD19 and Granta-519 spheroids
Protocol: To simulate conditions of chronic stimulation, approximately 20,000 anti-CD19 CAR-expressing T cells of a combined CAR-T cell composition produced as described in Example 1 from two healthy adult donors were incubated with 30 μg/mL of plate-bound CAR-specific anti-idiotypic antibody (see, e.g., WO2018/023100) at 37° C. for a period of seven days. During this seven-day period, engineered CAR T cells were concurrently treated with Compound 17 (0.1-1000 nM) or a vehicle control added at day 0.
To further assess activity of chronically stimulated cell, the chronically stimulated CAR-T cells that had been concurrently treated with DGKi were incubated with A549 CD19+ tumor spheroids or Granta-519 tumor spheroids to rechallenge the CAR-T cells at an effector to target ratio of 1:2 for up to 14 days. The tumor spheroids were engineered to express a red fluorescent dye to permit monitoring of tumor cell lysis by microscopy during the assay.
Supernatant was collected at day 5 from the above tumor spheroid cultures with chronically stimulated CAR-expressing T cells. Cytokine production was measured from the supernatant by meso scale discovery (MSD) analysis of the collected cell supernatants. […] Duplicate values for cell compositions manufactured from the two different healthy donors are shown.

[6] = tested on: anti-CD19 CAR-expressing T cells; assay: Rescue treatment of chronically stimulated CAR-T cells: cytolytic activity, 2D co-culture with CD19-expressing lymphoma cells; type: cell-based, human; conditions: rescue treatment during 2D co-culture, higher concentrations
Protocol: Anti-CD19 CAR-expressing T cells, produced as described in Example 1, were chronically stimulated with plate-bound CAR-specific anti-idiotypic antibody for seven days as described in Example 2, but in the absence of Compound 17 during chronic stimulation. Instead, chronically stimulated CAR T cells were treated with Compound 17 during re-challenge with CD19-expressing tumor cells, after which cytolytic activity and cytokine production were assessed.
The chronically stimulated CAR-T cells were incubated with various CD19-expressing lymphoma cells at a 2.5:1 effector:target ratio in the presence of DGKi (0-1000 nM). The tumor cells were labeled with NucLight Red (NLR) and tumor cell number was monitored by Incucyte®.

[7] = tested on: anti-HPV16 eTCR T cells; assay: Proliferation (cell counts) of chronically stimulated eTCR T cells re-stimulated with anti-Vbeta antibody; type: cell-based, human; conditions: re-stimulation 7 days with 20 μg/mL anti-Vbeta, 100 nM compound
Text: Primary human CD4+ and CD8+ T cells were isolated from healthy donors by immunoaffinity-based methods. The isolated CD4+ and CD8+ T cells were combined and stimulated with an anti-CD3/anti-CD28 reagent, and then were transduced with a lentiviral vector encoding an anti-human papillomavirus 16 (anti-HPV16) eTCR. The nucleotide sequences encoding the beta chain and the alpha chain of the eTCR were separated by a sequence encoding a 2A ribosome skip element. Following transduction, the cells were cultured in media containing human serum and cytokines for 9-10 days prior to further assessment. In another experiment to assess activity of the DGKi to rescue or reverse exhaustion, eTCR T cells were chronically stimulated for 6 days as described above in the absence of Compound 17. […] As a control, chronically stimulated eTCR T cells were re-stimulated in the absence of Compound 17 for 7 days. At the end of the 7 day re-stimulation, cell counts were determined. […] As expected, in the absence of treatment with Compound 17, there was an overall reduction in the ability of chronically stimulated T cells to proliferate compared to fresh eTCR T cells (compare conditions (1) and (3)).

## CC[C@H]1CN([C@@H](CC)c2ccc(C(F)(F)F)cc2)[C@H](CC)CN1c1nc(=O)n(C)c2ccc(C#N)nc12 [Compound 17, 4-((2S,5R)-2,5-diethyl-4-((S)-1-(4-(trifluoromethyl)phenyl)propyl)piperazin-1-yl)-1-methyl-2-oxo-1,2-dihydropyrido[3,2-d]pyrimidine-6-carbonitrile]
[1]
  pEC50: 7.70
[2]
  expression of CD27 and CD62L (% positive cells and MFI, presence vs. absence of compound): decreased
  expression of CD69 and PD-1 (% positive cells and MFI, presence vs. absence of compound): increased
[3]
  number of CD4+ and CD8+ CAR-expressing cells having an activated effector phenotype: increased
[4]
  T cell viability: no impact
[5]
  production of IFNγ, IL-2 and TNFα in supernatant: dose-dependent increase in production of all three cytokines
[6]; Granta-519 cells
  CAR-T cell cytolytic activity (tumor cell number): improved the cytolytic activity
[6]; K562.CD19 cells
  CAR-T cell cytolytic activity (tumor cell number): improved the cytolytic activity
[7]
  proliferation of eTCR T cells (cell counts): increased proliferation
